Test results as given in PMC9921564, “Novel Indole-Containing Hybrids Derived from Millepachine: Synthesis, Biological Evaluation and Antitumor Mechanism Study” (Molecules, 2023).

Tests used:
[1] = tested on: A2780 (human ovarian cancer cell line); assay: CCK-8 cytotoxicity, A2780; type: cell-based; settings: 48 h, read-out: IC50, Mean ± SE, A2780
Experimental: (§1) Besides the high cytotoxicity, drug resistance is the other limiting factor of chemotherapeutics. In this study, the cytotoxicities of compound 14b towards five kinds of drug-resistant cancer cell lines were also evaluated. Except three kinds of cell lines that are resistant to three drugs commonly used in clinical practice, two kinds of cell lines that are resistant to MTAs were also evaluated.
(§2) A549 (non-small-cell-lung cancer cell line), Caski (human epithelial cervical cancer cell line), HepG2 (human liver carcinoma cell line), MCF-7 (human breast carcinoma cell line), C42B (human prostate cancer line C42B), L-02 (human normal hepatocytes), RWPE-1 (human prostate epithelial cells) and MCF-10A (human normal mammary epithelial cells) were obtained from National Collection of Authenticated Cell Cultures (Shanghai, China). […]
(§3) After 24 h, the medium containing different concentrations of tested compounds were added for another 48 h. […] The optical density was recorded with a microplate reader at 570 nm (Thermo Scientific, Varioskan LUX). All the experiments were repeated independently at least three times and the IC50 values were calculated […]

[2] = tested on: A2780/TAX (A2780 cell line resistant to taxol); assay: CCK-8 cytotoxicity, A2780/TAX; type: cell-based; settings: Homo sapiens, 48 h, CCK-8, taxol-resistant, read-out: IC50, Mean ± SE, A2780/TAX
Experimental: as §1, §2, §3

## COc1ccc(C(=O)c2ccc3c(ccn3C)c2)c2c1C=CC(C)(C)O2 [compound 14b, (5-methoxy-2,2-dimethyl-2H-chromen-8-yl)(1-methyl-1H-indol-5-yl)methanone]
[1]
  IC50: 36 ± 4 nM
[2]
  IC50: 42 ± 11 nM
